Here are results for two compounds from patent US10092534B2, “Composition for treating headaches” (BIOHIT OYJ, priority 2012, dated 2018).

Experiment [1] concerns acetaldehyde in the saliva. The experiment can be described thus: Salivary acetaldehyde during smoking while sucking L-cysteine tablets (gas chromatography of saliva samples). The format is in vivo, human. As to conditions: for average salivary acetaldehyde contents immediately after smoking: five smokers, one cigarette in 5 minutes, placebo 191.2±48.5 μM. On the procedure: Five smokers (of the age of 29±2.8) participated in a study, in which […] were smoked (with cleaning periods in between). While smoking each cigarette (in 5 minutes time), the voluntaries sucked tablets blindfold, containing a placebo, 1.25 mg, 2.5 mg, 5 mg, 10 mg or 20 mg of L-cysteine. The acetaldehyde in the saliva samples was analysed by gas chromatography after 0, 5, 10, 20 minutes from starting to smoke.

Experiment [2] has as its system acetaldehyde from saliva. The experiment can be described thus: Elimination of acetaldehyde from saliva during smoking by a cysteine lozenge (FIG. 3). The format is in vivo, human. The note with it: lozenge containing 5 mg.

For the compound `N[C@@H](CS)C(=O)O` [L-cysteine], the “average salivary acetaldehyde contents immediately after smoking” value in experiment [1] (5 mg L-cysteine sucking tablet), in experiment [1] (10 mg L-cysteine sucking tablet) and in experiment [1] (20 mg L-cysteine sucking tablet) was 0 µM each time. The “inactivation of acetaldehyde in the saliva during smoking” value in experiment [1] (5 mg of L-cysteine delivered with a melting tablet) is recorded as “completely inactivated”. The “reduction of the amount of acetaldehyde compared with the placebo” value in experiment [1] (L-cysteine tablet of 1.25 mg, saliva, during smoking) is reported as “about two thirds”. Further, in experiment [1] (L-cysteine tablets 5 mg, 10 and 20 mg, during smoking, FIG. 1), the “removal of acetaldehyde originating from tobacco from the saliva” value is recorded as “removed from the saliva all of the acetaldehyde”. The “elimination of acetaldehyde from saliva during smoking” value in experiment [2] is reported as “totally eliminates acetaldehyde”.

`N[C@H](CS)C(=O)O` [D-cysteine]: in experiment [2], the “elimination of acetaldehyde from saliva during smoking” value is “totally eliminates acetaldehyde”.
